Data set [1] has as its system B16F10 mouse melanoma cells. Nature of the data set: Tumor cells B16F10 cellular growth IFNγ-induced inhibition assay (CellTiter-Glo). The format is cell-based. The following applies: for IC50: B16-F10, 72 h, 3 days of incubation; for inhibition at 100 µM: B16-F10, B16F10, 100 μM compound. As to the method:
B16F10 mouse melanoma cells (ATCC Cat #CRL-6475) were seeded at a density of 500 cells per well in a 384-well clear bottom plate (Corning Cat #3712, Corning, N.Y.) in 40 μL total volume of DMEM+10% FBS (PanEco Cat #C420, Russia and Sigma Cat #F4135, St. Louis, MO). Cells were allowed to adhere overnight at 37° C., 5% CO2. On the following day, 250× solutions of compounds in DMSO (Sigma Cat #D2650) were prepared into Cmpnds plate (Diamond Well Plate, Axigen, Cat #P-384-120SQ-C-S) (final concentration of 1×) and DMSO only controls were included. Dilution Plate (Diamond Well Plate (Axigen, Cat #P-384-120SQ-C-S) was prepared by adding 49 μL of culture medium per well: half of the plate with culture medium only, half with culture medium+IFNγ (5 ng/ml). A 1 μL aliquot of 250× compounds (Cmpnds plate) was added to 49 μL of culture medium (Dilution plate), then a 10 μL aliquot of the mixture was transferred to Reaction plate with 40 μL of cells followed by centrifugation at 240 g for 1 min. After 3 days of incubation, 10 μL of CellTiter-Glo (Promega) was added to the cells, plates were centrifuged at 240 g for 1 min, and luminescence signal was measured. For each compound, the percent growth inhibition at every compound dose level was calculated relative to the “DMSO/with IFNγ” control and used to determine the IC50.

For data set [2], the target named is GST-tagged PTPN2 protein (Homo sapiens (Human), UniProt P17706). In words: Primary assay of PTPN2 enzymatic activity inhibition (DiFMUP fluorescence). The class given is biochemical. Conditions: PTPN2 0.004 ng/μL, DiFUMP substrate 2 μM, 60 min at rt. The procedure:
Compound activity was determined using GST-tagged PTPN2 protein (Cat #31592, ActiveMotif) (SEQ ID NO: 1) in an in vitro enzymatic reaction. The enzymatic reaction was carried out in assay buffer (50 mM HEPES Na salt pH 7.2-7.4, 2 mM EDTA, 100 mM NaCl, 52 ng/μL BSA, and 6 mM DTT). The compounds were dispensed on a 384 well Diamond Well Plate (Axigen, Cat #P-384-120SQ-C-S) using the Biomek FX liquid handling system at 100× solutions of compounds in DMSO. 2×PTPN2 (final concentration 0.004 ng/μL) was prepared in 1× Assay buffer and 25 μL of mixture per well was added into Reaction plate (Optiplate, black, Perkin Elmer, Cat #6007270). Add 25 μL of 1× buffer to Ctrl- (Substrate w/o PTPN2) wells followed by centrifugation at 100 g for 1 min. Next step the Compounds were added to Reaction plate using Biomek station via following steps: 3 μl of 100× compounds (in DMSO) were mixed with 27 μL of Assay Buffer, then 5 μL of this mixture was added to Reaction plate with 25 μL of PTPN2 Mix. Plates were centrifuged for 1 min at 100 g and incubated for another 10 min at rt. Finally, 20 μL of 2.5× Substrate (DiFUMP, Invitrogen™ Cat #D6567) mix was added into appropriate wells of Reaction plate to the final concentration of 2 μM, plate was centrifuged at 100 g for 1 min followed by incubation at rt for 60 min, and the Fluorescence Intensity was measured using a Microplate Reader (ClarioStar Plus, excitation 360 nm, emission 450 nm). The % inhibition was then used to calculate the Ki values. The Ki values are shown in Table A, wherein “A” corresponds to Ki<1.0 nm, “B” corresponds to 1.0 nm≤Ki<5.0 nm, “C” corresponds to 5.0 nm≤Ki<10.0 nm, “D” corresponds to 10.0 nm≤Ki<50.0 nm, and “E” corresponds to 50.0 nm≤Ki<100.0 nm, and “F” corresponds to 100.0 nm≤Ki.

A short description of data set [3]: Pharmacokinetic (PK) study in mice, oral bioavailability. The format is in vivo, Male CD-1 mice. The following applies: 10 mg/kg PO vs 2 mg/kg IV, 10% Ethanol, 30% PEG-400, 60% Phosal-50PG. The procedure: Pharmacokinetic (PK) study in mice: Male CD-1 mice obtained from Charles River GmbH (Sulzfeld, Germany) with body weight ranging between 30 g to 40 g were used in the PK studies. Group of 12 mice were given a 2 mg/kg intravenous bolus (IV) dose of test article as a solution in 20% HP-beta-CD, and another group of 9 mice were given a 10 mg/kg oral (PO) dose of test article as a solution or suspension in [10% ethanol, 30% PEG-400 and 60% Phosal-50PG]. Blood samples (˜200 μL per time point) were collected twice from each animal—from orbital sinus and by cardiopuncture at 0.083, 0.25, 0.5, 1, 2, 4, 8 and 24 hours after IV administration, and at 0.5, 1, 2, 4, 8 and 24 hours after PO administration, 3 mice/time point. Blood samples were collected in tubes with Na-EDTA 0.5 M solution (1:10) and centrifuged for 10 min at 10,000 rpm at 2 to 8° C. to harvest plasma. Plasma samples were stored at −80° C. until LC/MS/MS analysis. Concentration in each plasma sample was determined by a non-validated LC/MS/MS. Data is acquired using multiple reaction monitoring (MRM) with specific transitions monitored for each compound. Pharmacokinetic Analysis: PK parameters were calculated by non-compartmental methods as described in Gibaldi and Perrier (Gibaldi and Perrier, 1982) using Phoenix® WinNonlin® version 6.3 (Certara L.P.). Following PO administration, percent bioavailability (Fabs) was determined by dividing the dose normalized mean area under the plasma concentration-time curve, extrapolated to the last time point (AUClast) obtained following PO dose by the mean dose normalized AUC of the animals dosed by IV injection. All PK parameters are presented as mean±standard deviation (SD). PK studies were conducted in mice for exemplary compounds of Formula (I). The percent bioavailability (Fabs) values determined are listed in Table C for certain compounds, together with the dosage, vehicle and form used in the studies.

Where [4] appears, read: B16F10, no IFNγ, read-out: IC50 no IFNγ.
Where [5] appears, read: B16F10, with IFNγ, read-out: IC50 + IFNγ.
[6] abbreviates: no IFNγ, read-out: % Growth Inhibition at 100 μM no IFNγ.
Where [7] appears, read: with IFNγ, read-out: % Growth Inhibition at 100 μM + IFNγ.

The record followed here is US20250313554A1, “PTPN2 INHIBITORS” (Ness Therapeutics, Inc., priority 2022, published 2025).

Where two headings read alike, the source gives them in different places. Bounds are passed on as bounds.

Chain of GST-tagged PTPN2 protein (P17706 whole entry): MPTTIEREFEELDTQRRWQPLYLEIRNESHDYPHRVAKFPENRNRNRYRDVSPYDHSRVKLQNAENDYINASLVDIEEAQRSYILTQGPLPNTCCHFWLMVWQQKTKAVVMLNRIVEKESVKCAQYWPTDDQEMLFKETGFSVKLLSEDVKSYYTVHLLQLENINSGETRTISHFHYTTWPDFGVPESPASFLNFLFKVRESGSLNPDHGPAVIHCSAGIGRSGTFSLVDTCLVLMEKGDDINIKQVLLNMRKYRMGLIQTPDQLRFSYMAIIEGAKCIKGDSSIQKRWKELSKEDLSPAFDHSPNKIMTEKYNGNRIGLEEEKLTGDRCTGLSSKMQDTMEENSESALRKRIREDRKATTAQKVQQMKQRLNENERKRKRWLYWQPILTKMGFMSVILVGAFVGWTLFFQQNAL

The IC50 is the concentration at which inhibition is half-maximal. One may read the inhibition as the share of the control response that was lost under treatment. One may read the Ki as the equilibrium dissociation constant of an inhibitor or competing ligand from its target. Turning to `O=C1CN(c2c(O)cc(Nc3nccc(O)n3)cc2F)S(=O)(=O)N1` [Compound 7, 5-[2-fluoro-6-hydroxy-4-[(4-hydroxypyrimidin-2-yl)amino]phenyl]-1,1-dioxo-1,2,5-thiadiazolidin-3-one], the values for the IC50 in data set [1] (setting [4]) and in data set [1] (setting [5]) were over 100 µM and 5 to 10 µM, respectively. Also, the inhibition at 100 µM lay within 10 to 50% in data set [1] (setting [6]) and 75 to 100% in data set [1] (setting [7]). Further, the Ki in data set [2] fell in the range of 1 to 5 nM. Further, the “Fabs, %” value in data set [3] (form Suspension) worked out at 6.1%.

Consider `COc1cc(O)nc(Nc2cc(O)c(N3CC(=O)NS3(=O)=O)c(F)c2)n1` [Compound 9, 5-[2-fluoro-6-hydroxy-4-[(4-hydroxy-6-methoxy-pyrimidin-2-yl)amino]phenyl]-1,1-dioxo-1,2,5-thiadiazolidin-3-one], for which the IC50 in data set [1] (setting [4]) was over 100 µM; in data set [1] (setting [5]), 5 to 10 µM. Further, the inhibition at 100 µM in data set [1] (setting [6]) lay in the range of 10 to 50%; in data set [1] (setting [7]), 75 to 100%. Besides, in data set [2], the Ki was under 1 nM. The “Fabs, %” value in data set [3] (form Solution) was determined as 10.4%.

As for `Cc1cc(O)nc(Nc2cc(O)c(N3CC(=O)NS3(=O)=O)c(F)c2)n1` [Compound 10, 5-[2-fluoro-6-hydroxy-4-[(4-hydroxy-6-methyl-pyrimidin-2-yl)amino]phenyl]-1,1-dioxo-1,2,5-thiadiazolidin-3-one], the half-inhibitory concentration (IC50) in data set [1] (setting [4]) was over 100 µM; in data set [1] (setting [5]), under 5 µM. Also, the inhibition at 100 µM in data set [1] (setting [6]) lay within 10 to 50%; in data set [1] (setting [7]), 75 to 100%. Further, the Ki in data set [2] lay in the range of 1 to 5 nM. In data set [3] (form Suspension), the “Fabs, %” value is reported as 2.7%.
